US10597388B2, “Pyridazinone herbicides” (FMC CORPORATION, priority 2014, dated 2020)

Tests used:
Assay in all cases: Test D controlled growth environment herbicide test, pre- and postemergence
Format in all cases: in vivo
[1] = tested on: Russian thistle (Salsola kali)
Method in brief: (§1)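 Rating is visual, 0–100 scale (100 = complete control), made against untreated plants 14–21 d after treatment in controlled growth conditions. Postemergence sprays went onto 1- to 4-leaf plants in peat medium; preemergence sprays onto silt loam after sowing; formulation included a surfactant.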

[2] = tested on: barley, spring (spring barley, Hordeum vulgare)
Method in brief: as §1

[3] = tested on: bluegrass (annual bluegrass, Poa annua)
Method in brief: as §1

[4] = tested on: deadnettle (henbit deadnettle, Lamium amplexicaule)
Method in brief: as §1

[5] = tested on: field violet (Viola arvensis)
Method in brief: as §1

[6] = tested on: foxtail, green (green foxtail, Setaria viridis)
Method in brief: as §1

kochia (Kochia scoparia) = tested on: kochia (Kochia scoparia)
Method in brief: as §1

[7] = tested on: mustard, wild (wild mustard, Sinapis arvensis)
Method in brief: as §1

[8] = tested on: oat, wild (wild oat, Avena fatua)
Method in brief: as §1

[9] = tested on: pigweed (Amaranthus retroflexus)
Method in brief: as §1

[10] = tested on: wheat, spring (spring wheat, Triticum aestivum)
Method in brief: as §1

[11] = tested on: wheat, winter (winter wheat, Triticum aestivum)
Method in brief: as §1

[12] = tested on: windgrass (Apera spica-venti)
Method in brief: as §1

[13] = Postemergence, 31 g ai/ha, scale 0 to 100 (0 no effect, 100 complete control)
[14] = Postemergence, 125 g ai/ha, visual rating on scale 0 (no effect) to 100 (complete control), 14 to 21 d
[15] = Postemergence, 250 g ai/ha, scale 0 to 100 (0 no effect, 100 complete control)
[16] = Preemergence, 125 g ai/ha, scale 0 to 100 (0 no effect, 100 complete control)
[17] = Preemergence, 250 g ai/ha, scale 0 to 100 (0 no effect, 100 complete control)
[18] = postemergence, 62 g ai/ha, scale 0 to 100, 0 no effect, 100 complete control
[19] = Preemergence, 62 g ai/ha, scale 0 to 100 (0 no effect, 100 complete control)

Compound: CC(=O)Oc1c(C)nn(C)c(=O)c1-c1ccc(F)c2ccccc12 [Compound 90]
- Russian Thistle plant response rating [1, 13]: 30
- Plant response rating, Russian Thistle [1, 14]: 75
- Plant response rating, Russian Thistle [1, 15]: 90
- Plant response rating (scale of 0 to 100), Russian Thistle ([1]; Preemergence, 31 g ai/ha): 10
- Plant response rating (scale of 0 to 100), Russian Thistle ([1]; Preemergence, 62 g ai/ha): 15
- Plant response rating, Russian Thistle [1, 16]: 35
- Plant response rating, Russian Thistle [1, 17]: 60
- Plant response rating, Russian Thistle [1, 18]: 75
- Barley, Spring plant response rating [2, 13]: 10
- Plant response rating, Barley, Spring [2, 14]: 35
- Plant response rating, Barley, Spring [2, 15]: 40
- Plant response rating (scale of 0 to 100), Barley, Spring ([2]; Preemergence, 31 g ai/ha): 0
- Plant response rating, Barley, Spring [2, 19]: 0
- Plant response rating, Barley, Spring [2, 16]: 20
- Plant response rating, Barley, Spring [2, 17]: 35
- Plant response rating, Barley, Spring [2, 18]: 25
- Bluegrass plant response rating [3, 13]: 5
- Plant response rating, Bluegrass [3, 14]: 25
- Plant response rating, Bluegrass [3, 15]: 30
- Plant response rating (scale of 0 to 100), Bluegrass ([3]; Preemergence, 31 g ai/ha): 0
- Plant response rating, Bluegrass [3, 19]: 40
- Plant response rating, Bluegrass [3, 16]: 65
- Plant response rating, Bluegrass [3, 17]: 65
- Plant response rating, Bluegrass [3, 18]: 15
- Deadnettle plant response rating [4, 13]: 70
- Plant response rating, Deadnettle [4, 14]: 100
- Plant response rating, Deadnettle [4, 15]: 100
- Plant response rating (scale of 0 to 100), Deadnettle ([4]; Preemergence, 31 g ai/ha): 15
- Plant response rating (scale of 0 to 100), Deadnettle ([4]; Preemergence, 62 g ai/ha): 70
- Plant response rating, Deadnettle [4, 16]: 90
- Plant response rating, Deadnettle [4, 17]: 98
- Plant response rating, Deadnettle [4, 18]: 80
- Field Violet plant response rating [5, 13]: 90
- Plant response rating, Field Violet [5, 14]: 100
- Plant response rating, Field Violet [5, 15]: 100
- Plant response rating (scale of 0 to 100), Field Violet ([5]; Preemergence, 31 g ai/ha): 95
- Plant response rating (scale of 0 to 100), Field Violet ([5]; Preemergence, 62 g ai/ha): 95
- Plant response rating, Field Violet [5, 16]: 100
- Plant response rating, Field Violet [5, 17]: 100
- Plant response rating, Field Violet [5, 18]: 98
- Foxtail, Green plant response rating [6, 13]: 25
- Plant response rating, Foxtail, Green [6, 14]: 70
- Plant response rating, Foxtail, Green [6, 15]: 75
- Plant response rating (scale of 0 to 100), Foxtail, Green ([6]; Preemergence, 31 g ai/ha): 25
- Plant response rating (scale of 0 to 100), Foxtail, Green ([6]; Preemergence, 62 g ai/ha): 45
- Plant response rating, Foxtail, Green [6, 16]: 70
- Plant response rating, Foxtail, Green [6, 17]: 95
- Plant response rating, Foxtail, Green [6, 18]: 55
- Kochia plant response rating (kochia (Kochia scoparia); [13]): 85
- Plant response rating, Kochia (kochia (Kochia scoparia); [14]): 100
- Plant response rating, Kochia (kochia (Kochia scoparia); [15]): 100
- Plant response rating (scale of 0 to 100), Kochia (kochia (Kochia scoparia); Preemergence, 31 g ai/ha): 75
- Plant response rating (scale of 0 to 100), Kochia (kochia (Kochia scoparia); Preemergence, 62 g ai/ha): 65
- Plant response rating, Kochia (kochia (Kochia scoparia); [16]): 90
- Plant response rating, Kochia (kochia (Kochia scoparia); [17]): 80
- Plant response rating, Kochia (kochia (Kochia scoparia); [18]): 100
- Mustard, Wild plant response rating [7, 13]: 80
- Plant response rating, Mustard, Wild [7, 14]: 100
- Plant response rating, Mustard, Wild [7, 15]: 100
- Plant response rating (scale of 0 to 100), Mustard, Wild ([7]; Preemergence, 31 g ai/ha): 35
- Plant response rating (scale of 0 to 100), Mustard, Wild ([7]; Preemergence, 62 g ai/ha): 98
- Plant response rating, Mustard, Wild [7, 16]: 100
- Plant response rating, Mustard, Wild [7, 17]: 90
- Plant response rating, Mustard, Wild [7, 18]: 95
- Oat, Wild plant response rating [8, 13]: 75
- Plant response rating, Oat, Wild [8, 14]: 98
- Plant response rating, Oat, Wild [8, 15]: 100
- Plant response rating (scale of 0 to 100), Oat, Wild ([8]; Preemergence, 31 g ai/ha): 75
- Plant response rating (scale of 0 to 100), Oat, Wild ([8]; Preemergence, 62 g ai/ha): 80
- Plant response rating, Oat, Wild [8, 16]: 85
- Plant response rating, Oat, Wild [8, 17]: 98
- Plant response rating, Oat, Wild [8, 18]: 90
- Pigweed plant response rating [9, 13]: 80
- Plant response rating, Pigweed [9, 14]: 95
- Plant response rating, Pigweed [9, 15]: 100
- Plant response rating (scale of 0 to 100), Pigweed ([9]; Preemergence, 31 g ai/ha): 25
- Plant response rating (scale of 0 to 100), Pigweed ([9]; Preemergence, 62 g ai/ha): 35
- Plant response rating, Pigweed [9, 16]: 100
- Plant response rating, Pigweed [9, 17]: 100
- Plant response rating, Pigweed [9, 18]: 90
- Wheat, Spring plant response rating [10, 13]: 25
- Plant response rating, Wheat, Spring [10, 14]: 40
- Plant response rating, Wheat, Spring [10, 15]: 50
- Plant response rating (scale of 0 to 100), Wheat, Spring ([10]; Preemergence, 31 g ai/ha): 20
- Plant response rating (scale of 0 to 100), Wheat, Spring ([10]; Preemergence, 62 g ai/ha): 35
- Plant response rating, Wheat, Spring [10, 16]: 60
- Plant response rating, Wheat, Spring [10, 17]: 70
- Plant response rating, Wheat, Spring [10, 18]: 35
- Wheat, Winter plant response rating [11, 13]: 20
- Plant response rating, Wheat, Winter [11, 14]: 40
- Plant response rating, Wheat, Winter [11, 15]: 40
- Plant response rating (scale of 0 to 100), Wheat, Winter ([11]; Preemergence, 31 g ai/ha): 0
- Plant response rating (scale of 0 to 100), Wheat, Winter ([11]; Preemergence, 62 g ai/ha): 10
- Plant response rating, Wheat, Winter [11, 16]: 25
- Plant response rating, Wheat, Winter [11, 17]: 50
- Plant response rating, Wheat, Winter [11, 18]: 35
- Windgrass plant response rating [12, 13]: 30
- Plant response rating, Windgrass [12, 14]: 70
- Plant response rating, Windgrass [12, 15]: 90
- Plant response rating (scale of 0 to 100), Windgrass ([12]; Preemergence, 31 g ai/ha): 50
- Plant response rating (scale of 0 to 100), Windgrass ([12]; Preemergence, 62 g ai/ha): 65
- Plant response rating, Windgrass [12, 16]: 80
- Plant response rating, Windgrass [12, 17]: 98
- Plant response rating, Windgrass [12, 18]: 50
